Results taken from patent publication US12109218B2, “Compositions of grapiprant and methods for using the same” (ARATANA THERAPEUTICS, INC., priority 2014, dated 2024).
Read-outs that look alike come from different tables or passages of the source.

Test: 28-day safety and toxicokinetic study in cats (Example 14)
Format: in vivo, cat
Details: for half-life: both sexes, domestic shorthair, cat, serum, oral, 15 mg/kg
Method: The objective of this study was to evaluate the feline safety and toxicokinetic profiles of grapiprant. Twenty-four domestic shorthair cats were randomly assigned to receive placebo or 3, 9, or 15 mg/kg grapiprant in a capsule formulation (3 males and 3 females per group) once daily for 28 days. All cats received their assigned medications as per protocol. Food consumption and behavior were observed daily, bodyweight measured weekly, and clinical pathology analyses on blood run on Days −7, 14, and 25, and urinalysis run on Days −7, and 25. Serial blood samples for toxicokinetic analyses were obtained following the Day 0 and Day 27 doses. Full necropsies and histopathological evaluations were performed following humane euthanasia on Day 28.

In the case of `CCc1nc2c(C)nc(C)cc2n1-c1ccc(CCNC(=O)NS(=O)(=O)c2ccc(C)cc2)cc1` [grapiprant, N-{2-[4-(2-ethyl-4,6-dimethyl-1H-imidazo[4,5-c]pyridin-1-yl)phenyl]ethyl}-N′-[(4-methylphenyl)sulfonyl]urea], the half-life (capsule 3, 9, or 15 mg/kg once daily, Day 27, read-out: Mean half-lives) was 3 to 14 h, the half-life (capsule 3, 9, or 15 mg/kg once daily, Day 27, read-out: half-life, median value) was 5 to 6 h and the “tolerability and adverse effects” value (capsule 3, 9, or 15 mg/kg once daily for 28 days) was “well tolerated, and no adverse effects were noted at daily doses up to 15 mg/kg for 28 days”. For the same molecule, the “time after administration at which maximum serum concentrations were reached” value (capsule 3, 9, or 15 mg/kg once daily, Day 27) was 1 to 4 h.
